According to US10202367B2, “Heterocyclic compounds and methods of use thereof” (priority 2014, dated 2019):
Like-named read-outs stand apart in the source and are kept apart here.

What was measured:
[1] = test system: HCVcc-RLuc; assay: HCVcc-RLuc assay, combination of compound 3 with anti-HCV drugs (CalcuSyn / MacSynergy II); format: cell-based, Hepatitis C virus
[2] = Aqueous solubility in PBS; format: physicochemical

| Molecule | Sol. [2] | further results |
| --- | --- | --- |
| C[C@@]1(O)[C@H](O)[C@@H](CO)O[C@H]1n1ccc(N)nc1=O [2′-C-methylcytidine] |  | CalcuSyn synergy volume (level of synergy) ([1]; tested drug combined with compound 3 (SID 144187742)): +/− (nearly additive (0.9 < CI < 1.1)); CalcuSyn CI value (combination index) ([1]; tested drug combined with compound 3 (SID 144187742) at or near their EC50 values, mean ± SEM, n ≥ 6): 1.10; MacSynergy synergy volume (level of synergy) ([1]; tested drug combined with compound 3, Bliss independence model, MacSynergy II): +++ (strong synergy (log volume > 9)) |
| Cc1cc(C)cc(-c2nc(CN3CCC(C(=O)NCCCN4C[C@H](C)C[C@H](C)C4)CC3)c(C)o2)c1 [Compound 4] | >71.0 µg/mL |  |
| Cc1ccccc1-c1nc(CN2CCC(C(=O)NCCCN3CCC(C(C)C)CC3)CC2)c(C)o1 [Compound 5] | >71.0 µg/mL |  |
| Cc1ccccc1-c1nc(CN2CCC(C(=O)NCCCN3CCCC(C)C3)CC2)c(C)o1 (centres unmarked) [Compound 6] | >67.0 µg/mL |  |
| Cc1ccccc1-c1nc(CN2CCC(C(=O)NCCCN3CCCCC3)CC2)c(C)o1 [Compound 9] | >65.0 µg/mL |  |
| Cc1ccccc1-c1nc(CN2CCC(C(=O)NCCCN3CCC(C)CC3)CC2)c(C)o1 [Compound 10] | >67.0 µg/mL |  |
| Cc1ccccc1-c1nc(CN2CCC(C(=O)NCCCN3CCOCC3)CC2)c(C)o1 [Compound 12] | >65.0 µg/mL |  |
| Cc1ccccc1-c1nc(CN2CCC(C(=O)N3CCN(C4CCN(C)CC4)CC3)CC2)c(C)o1 [Compound 13] | >71.0 µg/mL |  |
| Cc1ccccc1-c1nc(CN2CCC(C(=O)N3CCN(CCN(C)C)CC3)CC2)c(C)o1 [Compound 14] | >67.0 µg/mL |  |
| Cc1oc(-c2ccccc2Cl)nc1CN1CCC(C(=O)NCCCN2C[C@H](C)C[C@H](C)C2)CC1 [Compound 15] | >72.0 µg/mL |  |
| Cc1oc(-c2ccc(Cl)cc2)nc1CN1CCC(C(=O)NCCCN2C[C@H](C)C[C@H](C)C2)CC1 [Compound 16] | >72.0 µg/mL |  |
| CCc1ccccc1-c1nc(CN2CCC(C(=O)NCCCN3C[C@H](C)C[C@H](C)C3)CC2)c(C)o1 [Compound 17] | 55.9 µg/mL |  |
| Cc1cccc(-c2nc(CN3CCC(C(=O)NCCCN4C[C@H](C)C[C@H](C)C4)CC3)c(C)o2)c1 [Compound 18] | >69.0 µg/mL |  |
| Cc1ccc(-c2nc(CN3CCC(C(=O)NCCCN4C[C@H](C)C[C@H](C)C4)CC3)c(C)o2)cc1 [Compound 19] | >69.0 µg/mL |  |
| Cc1ccccc1-c1nc(CN2CCC(C(=O)NCCN3C[C@H](C)C[C@H](C)C3)CC2)c(C)o1 [Compound 20] | >67.0 µg/mL |  |
| Cc1ccccc1-c1nc(CN2CCC(C(=O)NCCCCN3C[C@H](C)C[C@H](C)C3)CC2)c(C)o1 [Compound 21] | >71.0 µg/mL |  |
| Cc1ccc(-c2nc(CN3CCC(C(=O)NCCCN4C[C@H](C)C[C@H](C)C4)CC3)c(C)o2)cc1C [Compound 22] | >71.0 µg/mL |  |

| Molecule | Sol. [2] | further results |
| --- | --- | --- |
| Cc1cccc(C)c1-c1nc(CN2CCC(C(=O)NCCCN3C[C@H](C)C[C@H](C)C3)CC2)c(C)o1 [Compound 23] | 55.9 µg/mL |  |
| Cc1oc(-c2cccc(Cl)c2)nc1CN1CCC(C(=O)NCCCN2C[C@H](C)C[C@H](C)C2)CC1 [Compound 24] | >72.0 µg/mL |  |
| Cc1ccccc1-c1nc(CN2CCC(C(=O)NCCCN3C[C@H](C)C[C@H](C)C3)CC2)c(C)o1 [Compound 25] | >69.0 µg/mL |  |
| Cc1ccccc1-c1nc(CN2CCC(C(=O)NCCCN3C[C@H](C)C[C@H](C)C3)CC2)c(C)o1 [Compound 26] | >69.0 µg/mL |  |
| Cc1ccccc1-c1nc(CN2CCC(C(=O)NCCCN3C[C@H](C)C[C@H](C)C3)CC2)c(C)o1 [Compound 27] | >69.0 µg/mL |  |
| Cc1ccccc1-c1nc(CN2CCC(C(=O)NCCCN3C[C@H](C)C[C@H](C)C3)CC2)c(C)o1 [Compound 28] | 54.8 µg/mL |  |
| Cc1ccccc1-c1nc(CN2CCC(C(=O)NCCCN3C[C@H](C)C[C@H](C)C3)CC2)c(C)o1 [Compound 29] | >69.0 µg/mL |  |
| Cc1oc(-c2c(F)cccc2F)nc1CN1CCC(C(=O)NCCCN2C[C@H](C)C[C@H](C)C2)CC1 [Compound 30] | >72.0 µg/mL |  |
| Cc1oc(-c2cccc3ccccc23)nc1CN1CCC(C(=O)NCCCN2C[C@H](C)C[C@H](C)C2)CC1 [Compound 31] | >74.0 µg/mL |  |
| Cc1oc(-c2c(Cl)cccc2Cl)nc1CN1CCC(C(=O)NCCCN2C[C@H](C)C[C@H](C)C2)CC1 [Compound 35] |  | Sol. ([2]; pH 7.4): >77.0 µg/mL |
| Cc1oc(-c2c(Br)cccc2Br)nc1CN1CCC(C(=O)NCCCN2C[C@H](C)C[C@H](C)C2)CC1 [Compound 43] |  | Sol. ([2]; pH 7.4): 62.4 µg/mL |
| Cc1ccccc1-c1nc(CN2CCC(C(=O)NCCCN3C[C@H](C)C[C@H](C)C3)CC2)c(C)o1 [Compound 63] | 54.8 µg/mL |  |
| Cc1ccccc1-c1nc(CN2CCC(C(=O)NCCCN3C[C@H](C)C[C@H](C)C3)CC2)c(C)o1 [Compound 64] | >69.0 µg/mL |  |
| COC(=O)N[C@H](C(=O)N1CCC[C@H]1c1nc(-c2ccc(-c3ccc(-c4c[nH]c([C@@H]5CCCN5C(=O)[C@@H](NC(=O)OC)C(C)C)n4)cc3)cc2)c[nH]1)C(C)C [Daclatasvir] |  | CalcuSyn CI value (combination index) [1]: 0.510; CalcuSyn synergy volume (level of synergy) [1]: +++ (key: +/−: nearly additive (0.9 < CI < 1.1); ++: moderate synergy (0.7 < CI < 0.85); +++: synergy (0.3 < CI < 0.7)) |
| NC(=O)c1ncn([C@@H]2O[C@H](CO)[C@@H](O)[C@H]2O)n1 [Ribavirin] |  | CalcuSyn CI value (combination index) [1]: 0.770; CalcuSyn synergy volume (level of synergy) [1]: ++ (key: +/−: nearly additive (0.9 < CI < 1.1); ++: moderate synergy (0.7 < CI < 0.85); +++: synergy (0.3 < CI < 0.7)); MacSynergy synergy volume (level of synergy) [1]: +++ (key: ++: moderate synergy (5 < log volume < 9); +++: strong synergy (log volume > 9)) |
| CCC[C@H](NC(=O)[C@@H]1[C@H]2CCC[C@H]2CN1C(=O)[C@@H](NC(=O)[C@@H](NC(=O)c1cnccn1)C1CCCCC1)C(C)(C)C)C(=O)C(=O)NC1CC1 [Telaprevir] |  | CalcuSyn CI value (combination index) [1]: 0.775; CalcuSyn synergy volume (level of synergy) [1]: ++ (key: +/−: nearly additive (0.9 < CI < 1.1); ++: moderate synergy (0.7 < CI < 0.85); +++: synergy (0.3 < CI < 0.7)); MacSynergy synergy volume (level of synergy) [1]: +++ (key: ++: moderate synergy (5 < log volume < 9); +++: strong synergy (log volume > 9)) |
| IFN-α |  | CalcuSyn CI value (combination index) [1]: 0.545; CalcuSyn synergy volume (level of synergy) [1]: +++ (key: +/−: nearly additive (0.9 < CI < 1.1); ++: moderate synergy (0.7 < CI < 0.85); +++: synergy (0.3 < CI < 0.7)) |

The next lines start with results.

| Sol. [2] | Molecule | further results |
| --- | --- | --- |
| >71.0 µg/mL | Cc1ccc(-c2nc(CN3CCC(C(=O)NCCCN4C[C@H](C)C[C@H](C)C4)CC3)c(C)o2)c(C)c1 [Compound 32] |  |
| >75.0 µg/mL | Cc1oc(-c2c(F)cccc2Cl)nc1CN1CCC(C(=O)NCCCN2C[C@H](C)C[C@H](C)C2)CC1 [Compound 33] |  |
| 56.1 µg/mL | Cc1ccc(C)c(-c2nc(CN3CCC(C(=O)NCCCN4C[C@H](C)C[C@H](C)C4)CC3)c(C)o2)c1 [Compound 34] |  |
| 62.1 µg/mL | Cc1oc(-c2c3ccccc3cc3ccccc23)nc1CN1CCC(C(=O)NCCCN2C[C@H](C)C[C@H](C)C2)CC1 [Compound 36] |  |
| >76.0 µg/mL | COc1cccc(OC)c1-c1nc(CN2CCC(C(=O)NCCCN3C[C@H](C)C[C@H](C)C3)CC2)c(C)o1 [Compound 37] |  |
| >74.0 µg/mL | COc1cccc(F)c1-c1nc(CN2CCC(C(=O)NCCCN3C[C@H](C)C[C@H](C)C3)CC2)c(C)o1 [Compound 38] |  |
| >76.0 µg/mL | Cc1ccc2ccccc2c1-c1nc(CN2CCC(C(=O)NCCCN3C[C@H](C)C[C@H](C)C3)CC2)c(C)o1 [Compound 39] |  |
| >83.0 µg/mL | COc1cccc(Br)c1-c1nc(CN2CCC(C(=O)NCCCN3C[C@H](C)C[C@H](C)C3)CC2)c(C)o1 [Compound 40] |  |
| >83.0 µg/mL | Cc1oc(-c2c(Cl)cccc2Br)nc1CN1CCC(C(=O)NCCCN2C[C@H](C)C[C@H](C)C2)CC1 [Compound 41] |  |
| >76.0 µg/mL | COc1cccc(Cl)c1-c1nc(CN2CCC(C(=O)NCCCN3C[C@H](C)C[C@H](C)C3)CC2)c(C)o1 [Compound 42] |  |
| 65.1 µg/mL | Cc1oc(-c2c(Cl)cccc2C(F)(F)F)nc1CN1CCC(C(=O)NCCCN2C[C@H](C)C[C@H](C)C2)CC1 [Compound 44] |  |
| >73.0 µg/mL | COc1cccc(C)c1-c1nc(CN2CCC(C(=O)NCCCN3C[C@H](C)C[C@H](C)C3)CC2)c(C)o1 [Compound 45] |  |
| >72.0 µg/mL | Cc1cccc(F)c1-c1nc(CN2CCC(C(=O)NCCCN3C[C@H](C)C[C@H](C)C3)CC2)c(C)o1 [Compound 46] |  |
| >69.0 µg/mL | Cc1ccccc1-c1nc(CN2CCC(C(=O)NCCCN3C[C@H](C)C[C@@H](C)C3)CC2)c(C)o1 [Compound 47] |  |
| >69.0 µg/mL | Cc1ccccc1-c1nc(CN2CCC(C(=O)NCCCN3CCC(C)(C)CC3)CC2)c(C)o1 [Compound 50] |  |
| >69.0 µg/mL | Cc1ccccc1-c1nc(CN2CCC(C(=O)NCCCN3[C@H](C)CCC[C@@H]3C)CC2)c(C)o1 [Compound 51] |  |
| >71 µg/mL | Cc1ccccc1-c1nc(CN2CCC(C(=O)NCCCN3CCCC(C(C)C)C3)CC2)c(C)o1 (centres unmarked) [Compound 52] |  |
| 54.9 µg/mL | Cc1ccccc1-c1nc(CN2CCC(C(=O)NCCCN3CCCC(CC(C)C)C3)CC2)c(C)o1 (centres unmarked) [Compound 53] |  |
| > .71 µg/mL | Cc1ccccc1-c1nc(CN2CCC(C(=O)NCCCN3CC4CCCC(C4)C3)CC2)c(C)o1 [Compound 54] |  |
| 52.6 µg/mL | Cc1cccc(Cl)c1-c1nc(CN2CCC(C(=O)NCCCN3CCCC(C)C3)CC2)c(C)o1 (centres unmarked) [Compound 59] |  |
| >74 µg/mL | Cc1cccc(Cl)c1-c1nc(CN2CCC(C(=O)NCCCN3CCC(C)(C)CC3)CC2)c(C)o1 [Compound 60] |  |
| >76 µg/mL | Cc1cccc(Cl)c1-c1nc(CN2CCC(C(=O)NCCCN3CCC(C(C)C)CC3)CC2)c(C)o1 [Compound 61] |  |
| >76.1 µg/mL | Cc1ccc2ccccc2c1-c1nc(CN2CCC(C(=O)NCCCN3C[C@H](C)C[C@H](C)C3)CC2)c(C)o1 [Compound 62] |  |
| >71.0 µg/mL | Cc1ccccc1-c1nc(CN2CCC(C(=O)NCCCN3C[C@H](C)C[C@H](C)C3)CC2)c(C)s1 [Compound 65] |  |
| >70 µg/mL | Cc1cc(-c2nc(CN3CCC(C(=O)NCCCN4C[C@H](C)C[C@H](C)C4)CC3)co2)ccc1F [Compound 70] |  |
| >72 µg/mL | Cc1cc(-c2nc(CN3CCC(C(=O)NCCCN4CCC(C(C)C)CC4)CC3)co2)ccc1F [Compound 71] |  |
